Results on one compound are retold here after article PMC11874377, “Fungal-derived methyldeoxaphomins target Plasmodium falciparum segregation through the inhibition of PfActin1” (Proceedings of the National Academy of Sciences of the …, 2025).

The assay concerns P. berghei liver stage in HepG2 cells. Nature of the assay: High content imaging liver stage screening. It counts as cell-based, Plasmodium berghei. As to the method:
Given these findings, we sought to observe the effects of NPDG-F on hepatic merozoites to see whether they were similarly impacted. To this end, HepG2 cells were infected with P. berghei sporozoites expressing luciferase and seeded onto a microtiter plate with NPDG-F at 2 HPI. At 72 HPI, a high content imaging (HCI) readout of treated parasites was performed to observe the impact on parasite maturation and merozoite formation via the expression of liver stage maturation markers MSP1 and AMA1. […] Infected monolayers treated with 1.1 µM of methyldeoxaphomin NPDG-F from 2-55 HPI were immunolabeled to examine the localization of MSP1 and AMA1 relative to parasite DNA during the period of merozoite formation (Fig. 4G). […]
Parasite reduction ratio adapted from protocol by Sanz et al (Sanz et al., 2012). […] After 3 weeks, growth was determined via SYBR Green I staining. The PRR was calculated and graphed using Graphpad Prism version […]
To examine the impact of methyldeoxaphomin NDPG F on the Plasmodium liver stage, HepG2 cells were infected with a luciferase-expressing strain of P. berghei. […] At 48 HPI, luciferase expression was measured as described(Van Voorhis et al., 2016) and parasite growth was quantified. After 72 HPI, High content imaging was performed to observe the relative expression of MSP1 and AMA1, the size and quantity of exoerythrocytic form parasites, and the HepG2 area occupied. […]

Regarding `C=C1C(C)C2C(Cc3ccccc3)NC(=O)C23C(=O)C=CC(O)C(O)C(C)CC(C)CC=CC3C1O` (centres unmarked) [Methyldeoxaphomin NPDG-F], the “effect on liver-stage parasite development” value (1.1 µM from 2-55 HPI) is “developmental failure during schizogony”. In addition, the “MSP1 positive exoerythrocytic form (EEF) parasites remaining in the monolayer” value (72 HPI, added at 2 HPI) is listed as “sharp increase”.
